Data on 20 compounds can be found in ChEMBL document CHEMBL1909046, “DrugMatrix in vitro pharmacology data”.

Experiment [1] addresses T1, Alpha-1A adrenergic receptor (Rattus norvegicus, UniProt P43140).
T1 sequence (P43140 whole entry): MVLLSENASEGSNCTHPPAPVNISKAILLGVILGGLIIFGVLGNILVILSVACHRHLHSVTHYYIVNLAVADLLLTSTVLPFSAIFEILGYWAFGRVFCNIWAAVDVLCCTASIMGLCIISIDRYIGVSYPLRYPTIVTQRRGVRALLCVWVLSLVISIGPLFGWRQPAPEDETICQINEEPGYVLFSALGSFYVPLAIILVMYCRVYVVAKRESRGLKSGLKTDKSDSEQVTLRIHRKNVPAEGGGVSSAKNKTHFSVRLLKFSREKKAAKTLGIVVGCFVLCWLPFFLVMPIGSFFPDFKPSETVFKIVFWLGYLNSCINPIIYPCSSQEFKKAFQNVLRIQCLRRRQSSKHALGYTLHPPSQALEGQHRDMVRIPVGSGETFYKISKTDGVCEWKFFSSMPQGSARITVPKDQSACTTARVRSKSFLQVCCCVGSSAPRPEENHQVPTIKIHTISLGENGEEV
The experiment can be described thus: DRUGMATRIX: Alpha-1A adrenergic receptor radioligand binding (ligand: prazosin). Type of experiment: cell membranes, Wistar, Submaxillary gland, Membrane. Conditions: Not Active = under 50% inhibition at 10 µM.

Experiment [2] has as its target Tyrosine-protein kinase Lck (Homo sapiens, UniProt P06239). The experiment in a line: DRUGMATRIX: Protein Tyrosine Kinase, LCK enzyme inhibition (substrate: Poly(Glu:Tyr)). Type of experiment: cell-based, Insect cells. The conditions noted are these: insect cells; Not Active = under 50% inhibition at 10 µM.
Experiment [3] in a line: DRUGMATRIX: Nicotinic Acetylcholine radioligand binding (ligand: [125I] Epibatidine). Type of experiment: cell membranes, Membrane. The conditions noted are these: imr-32; Not Active = under 50% inhibition at 10 µM.
Experiment [4] has as its target Mitogen-activated protein kinase 14 (Homo sapiens, UniProt Q16539). Also on record: species or system Escherichia coli.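 Further: inhibition of p38alpha enzyme activity in a biochemical kinase assay, with myelin basic protein serving as substrate; in other assays of this panel Not Active means under 50% inhibition at 10 µM.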
In experiment [5] the target is 5-hydroxytryptamine receptor 6 (Homo sapiens, UniProt P50406). Type of experiment: cell membranes, HeLa, Membrane. Further: in other assays of this panel Not Active means under 50% inhibition at 10 µM.
5-hydroxytryptamine receptor 6, sequence (P50406 whole entry): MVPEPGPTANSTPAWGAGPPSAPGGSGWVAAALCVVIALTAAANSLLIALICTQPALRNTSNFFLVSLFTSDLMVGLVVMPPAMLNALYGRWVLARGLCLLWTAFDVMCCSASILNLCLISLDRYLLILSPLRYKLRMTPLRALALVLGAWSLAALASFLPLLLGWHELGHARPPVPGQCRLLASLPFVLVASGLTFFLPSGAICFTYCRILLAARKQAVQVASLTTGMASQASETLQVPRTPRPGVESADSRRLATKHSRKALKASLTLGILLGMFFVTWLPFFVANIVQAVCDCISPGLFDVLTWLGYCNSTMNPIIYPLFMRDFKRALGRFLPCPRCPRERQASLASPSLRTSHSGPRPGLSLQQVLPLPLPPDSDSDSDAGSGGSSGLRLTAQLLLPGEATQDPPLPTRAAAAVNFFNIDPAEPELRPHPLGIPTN
In experiment [6] the target is T2, Glucocorticoid receptor (Homo sapiens, UniProt P04150). Further: in other assays of this panel Not Active means under 50% inhibition at 10 µM.
T2 sequence (P04150 whole entry): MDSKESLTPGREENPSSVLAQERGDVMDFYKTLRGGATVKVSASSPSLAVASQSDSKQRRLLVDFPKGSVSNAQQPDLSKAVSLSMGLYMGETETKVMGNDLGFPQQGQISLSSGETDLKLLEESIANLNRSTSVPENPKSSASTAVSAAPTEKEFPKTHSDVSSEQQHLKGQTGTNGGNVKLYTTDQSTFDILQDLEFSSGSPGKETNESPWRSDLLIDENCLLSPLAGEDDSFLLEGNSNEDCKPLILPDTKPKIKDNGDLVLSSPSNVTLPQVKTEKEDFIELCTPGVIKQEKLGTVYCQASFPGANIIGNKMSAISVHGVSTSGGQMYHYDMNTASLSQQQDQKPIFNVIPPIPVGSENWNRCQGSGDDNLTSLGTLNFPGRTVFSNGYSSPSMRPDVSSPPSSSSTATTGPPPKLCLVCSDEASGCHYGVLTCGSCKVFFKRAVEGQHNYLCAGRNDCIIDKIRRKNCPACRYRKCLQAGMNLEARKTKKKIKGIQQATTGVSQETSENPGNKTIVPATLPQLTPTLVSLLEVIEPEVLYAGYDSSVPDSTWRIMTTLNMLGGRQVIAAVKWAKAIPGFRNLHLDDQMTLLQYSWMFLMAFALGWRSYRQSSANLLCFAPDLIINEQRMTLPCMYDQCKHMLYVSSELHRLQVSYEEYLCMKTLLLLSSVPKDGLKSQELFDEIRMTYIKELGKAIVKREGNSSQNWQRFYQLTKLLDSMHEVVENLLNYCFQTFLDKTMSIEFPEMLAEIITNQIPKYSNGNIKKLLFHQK
Conditions: hela s3.

Tyrosine-protein kinase Lck, sequence (P06239 whole entry): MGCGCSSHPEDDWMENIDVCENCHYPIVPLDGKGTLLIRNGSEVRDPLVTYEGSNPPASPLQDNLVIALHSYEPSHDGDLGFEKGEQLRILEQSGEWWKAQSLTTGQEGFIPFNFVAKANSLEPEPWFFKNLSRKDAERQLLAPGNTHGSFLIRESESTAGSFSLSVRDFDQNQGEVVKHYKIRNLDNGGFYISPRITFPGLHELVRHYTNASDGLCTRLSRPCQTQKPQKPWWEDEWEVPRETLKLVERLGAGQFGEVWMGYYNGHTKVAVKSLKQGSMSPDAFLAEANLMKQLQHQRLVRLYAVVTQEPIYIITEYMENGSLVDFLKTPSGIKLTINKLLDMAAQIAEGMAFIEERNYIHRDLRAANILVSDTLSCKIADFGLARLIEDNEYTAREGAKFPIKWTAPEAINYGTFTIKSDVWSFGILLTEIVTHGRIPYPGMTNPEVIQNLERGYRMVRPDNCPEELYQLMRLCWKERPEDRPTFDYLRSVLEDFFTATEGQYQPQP
Mitogen-activated protein kinase 14, sequence (Q16539 whole entry): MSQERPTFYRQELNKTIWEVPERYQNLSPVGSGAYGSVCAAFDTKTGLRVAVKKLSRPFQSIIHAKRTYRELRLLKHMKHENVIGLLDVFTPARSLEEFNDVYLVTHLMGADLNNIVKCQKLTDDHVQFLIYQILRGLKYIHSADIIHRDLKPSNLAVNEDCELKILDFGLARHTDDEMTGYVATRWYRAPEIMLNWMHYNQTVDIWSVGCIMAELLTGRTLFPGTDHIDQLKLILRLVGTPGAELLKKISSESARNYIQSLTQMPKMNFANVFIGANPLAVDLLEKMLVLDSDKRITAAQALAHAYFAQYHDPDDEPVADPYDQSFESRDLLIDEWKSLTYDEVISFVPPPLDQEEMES

`COc1cc(/C=C/C(=O)O)ccc1O` [FERULATE]: the IC50 entry in experiment [1], in experiment [2], in experiment [3], in experiment [4], in experiment [5] (hela) and in experiment [6] was “Not Active” each time. The Ki entry in experiment [3] is on record as “Not Active”.
As for `CC(C)(C#N)c1cc(Cn2cncn2)cc(C(C)(C)C#N)c1` [ANASTROZOLE], the IC50 result in experiment [1], in experiment [2], in experiment [3], in experiment [4], in experiment [5] (hela) and in experiment [6] was “Not Active” in each case. Besides, in experiment [3], the Ki result is recorded as “Not Active”.
In the case of `CC(=O)[C@]1(O)Cc2c(O)c3c(c(O)c2[C@@H](O[C@H]2C[C@H](N)[C@H](O)[C@H](C)O2)C1)C(=O)c1ccccc1C3=O` [IDARUBICIN], the IC50 result in experiment [1], in experiment [2], in experiment [3], in experiment [4], in experiment [5] (hela) and in experiment [6] was “Not Active” in each case. For the same compound, the Ki entry in experiment [3] was “Not Active”.
For `C[C@@H]1[C@H](O)[C@@H](C)/C=C/C=C/C=C/C=C/C=C/C=C/C=C/[C@H](O[C@@H]2O[C@H](C)[C@@H](O)[C@H](N)[C@@H]2O)C[C@@H]2O[C@](O)(C[C@@H](O)C[C@@H](O)[C@H](O)CC[C@@H](O)C[C@@H](O)CC(=O)O[C@H]1C)C[C@H](O)[C@H]2C(=O)O` [AMPHOTERICIN B], the half-maximal inhibitory concentration (IC50) result in experiment [1], in experiment [2], in experiment [3], in experiment [4], in experiment [5] (hela) and in experiment [6] was “Not Active” each time. Besides, the Ki entry in experiment [3] is given as “Not Active”.
Consider `C[C@]12CC[C@@H](O)C[C@@H]1CC[C@@H]1[C@@H]2CC[C@]2(C)C(=O)CC[C@@H]12` [ANDROSTERONE], for which the IC50 entry in experiment [1], in experiment [2], in experiment [3], in experiment [4], in experiment [5] (hela) and in experiment [6] was “Not Active” in each case. Further, the Ki result in experiment [3] is listed as “Not Active”.
Consider `NCC(CC(=O)O)c1ccc(Cl)cc1` (stereo not given) [BACLOFEN], for which the IC50 result in experiment [1], in experiment [2], in experiment [3], in experiment [4], in experiment [5] (hela) and in experiment [6] was “Not Active” in each case. Moreover, the Ki result in experiment [3] was “Not Active”.
Regarding `COc1ccccc1OCCNCC(O)COc1cccc2[nH]c3ccccc3c12` (stereo not given) [CARVEDILOL], the IC50 result in experiment [2] is “Not Active”; in experiment [3], “Not Active”; in experiment [4] it was “Not Active”; in experiment [5] (read-out: IC50), 1520 nM; in experiment [6], “Not Active”. The figures for the Ki entry in experiment [3] and in experiment [5] (read-out: Ki) were “Not Active” and 705 nM, respectively.
For `C=CCO` [ALLYL ALCOHOL], the half-maximal inhibitory concentration (IC50) entry in experiment [1], in experiment [2], in experiment [3], in experiment [4], in experiment [5] (hela) and in experiment [6] was “Not Active” in each case. Also, in experiment [3], the Ki result is “Not Active”.
Take `CC(C)Cc1ccc([C@H](C)C(=O)O)cc1` [DEXIBUPROFEN]: the IC50 entry in experiment [1], in experiment [2], in experiment [3], in experiment [4], in experiment [5] (hela) and in experiment [6] was “Not Active” in each case. The Ki entry in experiment [3] is “Not Active”.
Turning to `O=c1[nH]cnc2c1ncn2[C@H]1CC[C@@H](CO)O1` [DIDANOSINE], the half-maximal inhibitory concentration (IC50) result in experiment [1], in experiment [2], in experiment [3], in experiment [4], in experiment [5] (hela) and in experiment [6] was “Not Active” in each case. Further, the Ki result in experiment [3] is “Not Active”.
As for `CC1(COc2ccc(CC3SC(=O)NC3=O)cc2)CCCCC1` (stereo not given) [CIGLITAZONE], the IC50 result in experiment [1], in experiment [2], in experiment [3], in experiment [4], in experiment [5] (hela) and in experiment [6] was “Not Active” in each case. The Ki entry in experiment [3] is recorded as “Not Active”.
Turning to `CC(=O)Nc1ccc2c(c1)Cc1ccccc1-2` [2-ACETYLAMINOFLUORENE], the IC50 result in experiment [1], in experiment [2], in experiment [3], in experiment [4], in experiment [5] (hela) and in experiment [6] was “Not Active” each time. Besides, the Ki entry in experiment [3] is “Not Active”.
Turning to `C[C@H](C(=O)O)c1ccc2oc(-c3ccc(F)cc3)nc2c1` [FLUNOXAPROFEN], the IC50 entry in experiment [1], in experiment [2], in experiment [3], in experiment [4], in experiment [5] (hela) and in experiment [6] was “Not Active” each time. For the same compound, the Ki result in experiment [3] is given as “Not Active”.
`CC(C)Cn1cnc2c(N)nc3ccccc3c21` [IMIQUIMOD]: the IC50 result in experiment [1], in experiment [2], in experiment [3], in experiment [4], in experiment [5] (hela) and in experiment [6] was “Not Active” throughout. For the same compound, the Ki entry in experiment [3] is “Not Active”.
As to `OC[C@H]1OC2C3[C@@H](CO)OC(O[C@H]4[C@H](O)[C@@H](O)[C@@H](O[C@H]5[C@H](O)[C@@H](O)[C@@H](O[C@H]6[C@H](O)[C@@H](O)[C@@H](O[C@H]7[C@H](O)[C@@H](O)[C@@H](O[C@H]8[C@H](O)[C@@H](O)[C@@H](O[C@H]9[C@H](O)[C@@H](O)C(OC1[C@H](O)[C@H]2O)O[C@@H]9CO)O[C@@H]8CO)O[C@@H]7CO)O[C@@H]6CO)O[C@@H]5CO)O[C@@H]4CO)[C@H](O)[C@H]3O`, the IC50 result in experiment [1], in experiment [2], in experiment [3], in experiment [4], in experiment [5] (hela) and in experiment [6] was “Not Active” in each case. Also, the Ki result in experiment [3] is on record as “Not Active”.
For the compound `CCN1CCN(c2cc3c(cc2F)c(=O)c(C(=O)O)cn3C2CC2)CC1` [ENROFLOXACIN], the IC50 result in experiment [1], in experiment [2], in experiment [3], in experiment [4], in experiment [5] (hela) and in experiment [6] was “Not Active” throughout. Moreover, in experiment [3], the Ki entry is recorded as “Not Active”.
For the compound POVIDONE, the IC50 result in experiment [1], in experiment [2], in experiment [3], in experiment [4], in experiment [5] (hela) and in experiment [6] was “Not Active” in each case. Also, the Ki result in experiment [1], in experiment [2], in experiment [3], in experiment [4], in experiment [5] (hela) and in experiment [6] was “Not Active” in each case.
Consider `C=C(Cl)Cl` [1,1-DICHLOROETHENE], for which the IC50 result in experiment [1], in experiment [2], in experiment [3], in experiment [4], in experiment [5] (hela) and in experiment [6] was “Not Active” each time. Further, the Ki result in experiment [3] is reported as “Not Active”.
Turning to `C=CCN1CC[C@]23c4c5ccc(O)c4O[C@H]2/C(=N/N=C2\CC[C@@]4(O)[C@H]6Cc7ccc(O)c8c7[C@@]4(CCN6CC=C)[C@H]2O8)CC[C@@]3(O)[C@H]1C5` [NALOXONAZINE], the IC50 entry in experiment [1], in experiment [2], in experiment [3], in experiment [4], in experiment [5] (hela) and in experiment [6] was “Not Active” in each case. The Ki entry in experiment [3] is recorded as “Not Active”.
For `Cc1cc(C(C)(C)C)c(O)c(C)c1CC1=NCCN1` [OXYMETAZOLINE], the IC50 entry in experiment [2] is “Not Active”; in experiment [3], “Not Active”; in experiment [4], “Not Active”; in experiment [5] (read-out: IC50), 1670 nM; in experiment [6] it was “Not Active”. For the same compound, the values for the Ki result in experiment [3] and in experiment [5] (read-out: Ki) were “Not Active” and 775 nM, respectively.
